Experimental data published in publication PMC9021288 (Nature Communications, 2022).
Values joined by “and” are separate entries in the source; they are usually repeats but may differ in a detail not shown here. Identical values can stand only once. “Also recorded” adds a separate entry of the source.

Columns and labels:
[1] = Stability under stress storage conditions (XRPD); assay type: physicochemical; conditions: 40 °C, 75% RH open and closed container or 60 °C, one month
[2] = 7-day Maximum Tolerated Dose 1 (MTD1) rat study; assay type: in vivo, Wistar Han rats; set-up: AUC(0 - t) / Cmax / Urea / Glucose / Triglycerides: unit not given here; conditions: for Glucose / Triglycerides / Urea: Female
Text: See the summary of the study design in Supplementary Table 31. Nine-week-old Wistar (Crl:WI (Han)) rats were obtained from Charles River Laboratories (Domaine des Oncins, Saint-Germain-Nuelles, France). […] Animals were examined daily for any altered clinical signs, body weights, and food consumption. Blood samples were taken at different timepoints after the test item administration, and toxicokinetic exposure assessed under the defined experimental conditions and analyzed using Phoenix (version 6.4 and 1.4) (Supplementary Table 32). Measurements included hematology and clinical chemistry measurements. Animals were euthanized and necropsied at the end of the dosing period. At necropsy, major organ systems and tissues were collected and weighed and then examined for gross lesions as well as for microscopic changes.

Structure (SMILES): C[C@@H](CNC(=O)[C@H](O)C(C)(C)CO)NC(=O)c1cc(F)c(F)cc1F [MMV693183]
- stability after storage under stress conditions [1]: chemically stable; also recorded: no form-change
- mortality ([2]; 60, 200, 600 mg/kg/day, 7 days): no mortality occurred
- Glucose ([2]; 60 mg/kg): 6.25 and 5.62 and 5.48
- Triglycerides ([2]; 60 mg/kg): 0.3 and 0.46 and 0.39
- Urea ([2]; 60 mg/kg): 6.7 and 8 and 8.3
- Glucose ([2]; 200 mg/kg): 5.19 and 5.85 and 7.06
- Triglycerides ([2]; 200 mg/kg): 0.51 and 0.91 and 0.6
- Urea ([2]; 200 mg/kg): 7.8 and 8 and 8.4
- Glucose ([2]; 600 mg/kg): 6.4 and 7.42 and 7.56
- Triglycerides ([2]; 600 mg/kg): 0.6 and 0.51 and 0.37
- Urea ([2]; 600 mg/kg): 7.4 and 6.8 and 9.9
- Liver weight ([2]; MTD1 60 mg/kg/day, Females): 4.77 g
- AUC(0 - t) ([2]; MTD1 60 mg/kg/day, Females, Day 1 then Day 7): 88.9
- Liver weight ([2]; MTD1 60 mg/kg/day, Males): 7.73 g
- Liver weight ([2]; MTD1 200 mg/kg/day, Females): 6.00 g
- Liver weight ([2]; MTD1 200 mg/kg/day, Males): 8.66 g
- Liver weight ([2]; MTD1 600 mg/kg/day, Females): 7.44 g
- Liver weight ([2]; MTD1 600 mg/kg/day, Males): 11.22 g
- Concentration ([2]; MTD1 females, Day 1, 60 mg/kg/day, 0 h): LLOQ
- Concentration ([2]; MTD1 females, Day 1, 60 mg/kg/day, 1 h): 33.6 µM and 28.3 µM
- Concentration ([2]; MTD1 females, Day 1, 60 mg/kg/day, 4 h): 2.9 µM and 3.29 µM
- Concentration ([2]; MTD1 females, Day 1, 60 mg/kg/day, 8 h): 1.05 µM and 0.628 µM
- Concentration ([2]; MTD1 females, Day 1, 60 mg/kg/day, 24 h): LLOQ
- Concentration ([2]; MTD1 females, Day 1, 200 mg/kg/day, 0 h): LLOQ
- Concentration ([2]; MTD1 females, Day 1, 200 mg/kg/day, 1 h): 86.7 µM and 116 µM
- Concentration ([2]; MTD1 females, Day 1, 200 mg/kg/day, 4 h): 21.3 µM and 11.6 µM
- Concentration ([2]; MTD1 females, Day 1, 200 mg/kg/day, 8 h): 6.7 µM and 4.68 µM
- Concentration ([2]; MTD1 females, Day 1, 600 mg/kg/day, 0 h): LLOQ
- Concentration ([2]; MTD1 females, Day 1, 600 mg/kg/day, 1 h): 311 µM
- Concentration ([2]; MTD1 females, Day 1, 600 mg/kg/day, 4 h): 74.9 µM and 64.8 µM
- Concentration ([2]; MTD1 females, Day 1, 600 mg/kg/day, 8 h): 49.5 µM and 25.8 µM
- Concentration ([2]; MTD1 females, Day 1, 600 mg/kg/day, 24 h): LLOQ
- Concentration ([2]; MTD1 females, Day 7, 60 mg/kg/day, 0 h): LLOQ
- Concentration ([2]; MTD1 females, Day 7, 60 mg/kg/day, 1 h): 21.8 µM and 20.3 µM
- Concentration ([2]; MTD1 females, Day 7, 60 mg/kg/day, 4 h): 2.9 µM and 3.02 µM
- Concentration ([2]; MTD1 females, Day 7, 60 mg/kg/day, 8 h): 0.604 µM and 1.2 µM
- Concentration ([2]; MTD1 females, Day 7, 60 mg/kg/day, 24 h): LLOQ
- Concentration ([2]; MTD1 females, Day 7, 200 mg/kg/day, 0 h): LLOQ
- Concentration ([2]; MTD1 females, Day 7, 200 mg/kg/day, 1 h): 10.4 µM and 9.61 µM
- Concentration ([2]; MTD1 females, Day 7, 200 mg/kg/day, 4 h): 5.35 µM and 3.22 µM
- Concentration ([2]; MTD1 females, Day 7, 200 mg/kg/day, 8 h): 0.804 µM and 0.957 µM
- Concentration ([2]; MTD1 females, Day 7, 200 mg/kg/day, 24 h): LLOQ
- Concentration ([2]; MTD1 females, Day 7, 600 mg/kg/day, 0 h): 0.568 µM and 0.368 µM
- Concentration ([2]; MTD1 females, Day 7, 600 mg/kg/day, 1 h): 15.1 µM and 29.6 µM
- Concentration ([2]; MTD1 females, Day 7, 600 mg/kg/day, 4 h): 8.62 µM and 9.68 µM
- Concentration ([2]; MTD1 females, Day 7, 600 mg/kg/day, 8 h): 6.83 µM and 6.42 µM
- Concentration ([2]; MTD1 males, Day 1, 60 mg/kg/day, 0 h): LLOQ
- Concentration ([2]; MTD1 males, Day 1, 60 mg/kg/day, 1 h): 12 µM and 13.7 µM
- Concentration ([2]; MTD1 males, Day 1, 60 mg/kg/day, 4 h): 1.09 µM and 1.97 µM
- Concentration ([2]; MTD1 males, Day 1, 60 mg/kg/day, 24 h): LLOQ
- Concentration ([2]; MTD1 males, Day 1, 200 mg/kg/day, 0 h): LLOQ
- Concentration ([2]; MTD1 males, Day 1, 200 mg/kg/day, 1 h): 98.9 µM and 133 µM
- Concentration ([2]; MTD1 males, Day 1, 200 mg/kg/day, 4 h): 14 µM and 18.5 µM
- Concentration ([2]; MTD1 males, Day 1, 200 mg/kg/day, 24 h): LLOQ
- Concentration ([2]; MTD1 males, Day 1, 600 mg/kg/day, 0 h): LLOQ
- Concentration ([2]; MTD1 males, Day 1, 600 mg/kg/day, 1 h): 189 µM and 295 µM
- Concentration ([2]; MTD1 males, Day 1, 600 mg/kg/day, 4 h): 69.9 µM and 98.6 µM
- Concentration ([2]; MTD1 males, Day 7, 60 mg/kg/day, 0 h): LLOQ
- Concentration ([2]; MTD1 males, Day 7, 60 mg/kg/day, 1 h): 2.78 µM and 3.29 µM
- Concentration ([2]; MTD1 males, Day 7, 60 mg/kg/day, 8 h): LLOQ
- Concentration ([2]; MTD1 males, Day 7, 60 mg/kg/day, 24 h): LLOQ
- Concentration ([2]; MTD1 males, Day 7, 200 mg/kg/day, 0 h): LLOQ
- Concentration ([2]; MTD1 males, Day 7, 200 mg/kg/day, 1 h): 15.5 µM and 8.65 µM
- Concentration ([2]; MTD1 males, Day 7, 200 mg/kg/day, 4 h): 2.92 µM and 2.95 µM
- Concentration ([2]; MTD1 males, Day 7, 200 mg/kg/day, 8 h): 1.04 µM and 0.952 µM
- Concentration ([2]; MTD1 males, Day 7, 200 mg/kg/day, 24 h): LLOQ
- Concentration ([2]; MTD1 males, Day 7, 600 mg/kg/day, 0 h): LLOQ
- Concentration ([2]; MTD1 males, Day 7, 600 mg/kg/day, 4 h): 4.9 µM and 5.09 µM
- Concentration ([2]; MTD1 males, Day 7, 600 mg/kg/day, 24 h): LLOQ
- Liver weight ([2]; MTD1 study, females, 60 mg/kg/day, individual animals): 4.84 g and 4.87 g
